Reference: patent publication US11697689B2, “Use of antibody against O-acetylated GD2 ganglioside to improve the therapeutic potential of drugs” (OGD2 PHARMA, priority 2016, dated 2023)
Like-named read-outs stand apart in the source and are kept apart here.

How the values were obtained:
LAN-5 cells [1] = test: MTT cell proliferation assay, drug with or without mAb 8B6; assay type: cell-based, human; conditions: for EC50: Homo sapiens, 48 hours
Procedure: Equivalent culture media volume was added to control wells. […] Cells were exposed to test agents for 48 hours.

NXS2 cells [2] = test: as above; assay type: cell-based, murine; conditions: for EC50: Mus musculus, 48 hours
Procedure: (§1) The antiproliferative activity of the anti-cancer agents was evaluated using the MIT Cell Proliferation Assay Kit (Roche Diagnostic, Indianapolis, USA). The MTT assay is based on the reduction of yellow tetrazolium MIT (3-(4,5-dimethylthiazolyl-2)-2,5-diphenyltetrazolium bromide) by metabolically active cells forming purple formazan crystals. The purple formazan is solubilized with detergent and quantified spectrophotometrically at 570 nm.
(§2) Cells in the log phase of growth were seeded into 96-well (5×10^3 for LAN-1 and NXS2 cells; 1×10^4 for IMR5 and LAN-5 cells) treated plates in 100 μl of complete media. The cells were allowed to attach during an overnight incubation prior to treating with test agents. […] Equivalent culture media volume was added to control wells. Three conditions were used: anti-cancer agent alone, mAb 8B6 alone, mAb 8B6+anti-cancer agent. Cells were exposed to test agents for 48 hours. Following the exposure to test agents, 15 μl of MIT reagent was added to each well. The plates were returned to the incubator for four hours. Following the incubation period, kit supplied detergent reagent (100 μl) was added to all wells. The plates were wrapped in plastic wrap to prevent evaporation and allowed to sit at room temperature in the dark overnight. The absorbance at 570 nm was measured the following day using a iMark™ Microplate Absorbance Reader plate reader (Bio-Rad). Assays were performed in quadruplicate and experiments were repeated three times. […] The median-effect equation used by CompuSyn® software derived from the mass-action law principle at equilibrium steady state. […] Percent of Control values were calculated by dividing the absorbance values for each test well by the No Drug Control average and multiplying by 100.
(§3) Combination data was analyzed using CompuSyn® software to calculate Combination Index values to assess synergy. […] The dosage, fraction affected and molar ratio of compounds tested in combination were entered into the CompuSyn® software for evaluation of the presence/absence of synergy. CompuSyn® assigns a Combination Index value which rates the level of compounds' inhibiting 50% of the cell proliferation. […] See Chou, PHARMACOL.
(§4) NXS2 cells were grown in DMEM 4.5 g/L de glucose with 10% heat-inactivated fetal calf serum, 2 mM L-Glutamine, 100 units/ml penicillin, and 100 μg/ml streptomycin, at 37° C. in 5% CO2.

IMR5 cells [3] = test: as above; assay type: cell-based, human; conditions: for EC50: Homo sapiens, 48 hours
Procedure: as §1, §2, §3, §4

LAN-1 cells [4] = test: as above; assay type: cell-based, human; conditions: for EC50: Homo sapiens, 48 hours
Procedure: as §1, §2, §3, §4

[5] = tested on: NXS2 neuroblastoma experimental liver metastasis; test: Murine NXS2 neuroblastoma experimental liver metastasis model; assay type: in vivo, A/J mice; conditions: day 28 after NXS2 inoculation; mAb 8B6 150 μg cumulative i.v.; isotretinoin 10 mg/kg per os; topotecan 0.36 mg/kg i.p.; doxorubicin 1 mg/kg i.p.; vehicle 2.5±0.18 g; mean±SEM
Procedure: Mice (n=10/group) were inoculated with 2.5×10^5 NXS2 mouse neuroblastoma cells by i.v. injections. 8B6 mAb treatment was started on day 3 after tumor cell inoculation twice a week for 3 consecutive weeks (cumulative dose=150 μg, A-C). All chemotherapeutic treatments were started at day 10 post-tumor inoculation. Panel A: isotretinoin was given at 10 mg/kg, per os, five times weekly for 2 weeks. […] Panel C: doxorubicin was given by i.p. injections at 1 mg/kg five times weekly for 2 weeks. Mice were euthanized 28 days post-tumor inoculation. Anti-tumor efficacy was evaluated by determining the liver weight on the fresh specimen compared to the mice treated with vehicle only. The liver weight is indicative of hepatic metastasis number. The y-axis starts at 0.8 g corresponding to the average normal liver weight. Data are presented as the mean±SEM.
We inoculated 2.5×10^5 tumor cells by tail vein in PBS. […] Anti-OAcGD2 mAb 8B6 treatment was started at Day 3 after tumor cells injection. Mice received by i.v. injection twice a week 25 μg mAb 8B6 for 3 consecutive weeks; (day 3, 7, 10, 14, 17 and 21; total dose=150 μg). Isotretinoin was given orally diluted in Ora-Plus© at 10 mg/kg daily for 2 consecutive weeks (on days 10-14 and 17-21). […] Doxorubicin was given by i.p. injection at 1 mg/kg daily for two weeks (on days 10-14 and 17-21). Mice were sacrificed after 28 days post inoculation, and anti-tumor efficacy was evaluated by liver weight of the fresh specimen as well as hepatic metastasis number. • 6.2—Results
Anti-cancer agents were given at low doses as previously reported in the literature in order to minimize related side effects. Three days after i.v. NSX2 tumor cell inoculation, ten mice were assigned to treatment with single agent, or combination of mAb 8B6 and anti-cancer agents as described previously. On day 28 after tumor cell inoculation, we determined the number of liver metastases and the liver weight after mice euthanasia.

NXS2 cells [6] = test: OAcGD2 expression (mAb 8B6 binding) after drug exposure, flow cytometry; conditions: isotretinoin 75, topotecan 0.5, doxorubicin 3 μM (Table 1), mean ± SD
LAN-5 cells [7] = test: as above; conditions: isotretinoin 8, topotecan 1, doxorubicin 5 μM (Table 1), mean ± SD, n = 3, untreated 13.2 ± 0.7
LAN-1 cells [8] = test: as above; conditions: isotretinoin 40, topotecan 5, doxorubicin 3 μM (Table 1), mean ± SD, n = 3, untreated 12.1 ± 0.1
[9] = Systemic tolerability, body weight over the treatment period; assay type: in vivo, A/J mice; conditions: same groups and doses as the NXS2 liver metastasis study
From the text: Mean weight of group of mice (n=10) presented in FIG. 6 at day 0 was defined as 100% weight. Weight in each group remained stable for the period of treatment. Δ, mice treated with mAb 8B6; ◯, mice treated with anti-cancer agent; □, mice treated with chemotherapeutic drug plus mAb 8B6.
Weight loss is used as a sensitive marker for health monitoring. We therefore performed a parallel analysis of the body weight over the treatment period. […] The body-weight difference between the two groups treated with doxorubicin compared to the non-doxorubicin group, however, fails to be significant during the treatment period (p>0.05).

IMR5 cells [10] = test: OAcGD2 expression (mAb 8B6 binding) after drug exposure, flow cytometry; conditions: isotretinoin 40, topotecan 1, doxorubicin 7 μM (Table 1), mean ± SD, n = 3, untreated 14.6 ± 0.4
LAN-1 cells [11] = test: Incorporation of anti-cancer agents in cells, flow cytometry; assay type: cell-based, human; conditions: 5-FU and cisplatin 1.52 μM, doxorubicin […], mAb 8B6 40 μg/ml, 30 minutes at 37° C.
Procedure: FIG. 3: Internalization of 5-FU, Cisplatin and doxorubicin in neuroblastoma cells. LAN-1 cells were treated with 5-FU (1.52 μM)—Panel A, or Cisplatin (1.52 μM)—Panel B, or doxorubicin (4.7 μM)—Panels C and D with combinations of isotype-matched negative control mouse IgG3 (40 μg/ml) or anti-OAcGD2 mAb 8B6, anti-OAcGD2 mAb c8B6.14b, anti-OAcGD2 mAb c8B6.15b (40 μg/ml). Anti-cancer agents and mAb were incubated during 30 minutes at 37° C. Neuroblastoma cells were fixed with PFA 4% before FACS acquisition. Positive control was performed by treatment of fixed LAN-1 cells with saponin 0.05% in combination with anti-cancer agents during 30 minutes. Incorporation of anti-cancer agents in tumor cells was assessed by flow cytometry (excitation with a 535 nm laser) and results are expressed in percentage of cells having incorporated anti-cancer agent in total cell population.
Combinations of anti-OAcGD2 mAb 8B6 with other anti-cancer agents were also assayed on LAN-1 neuroblastoma cell line. In this experiment, incorporation of 5-FU, Cisplatin and doxorubicin within the cells in the presence of mAb 8B6 or CTRL-(IgG) was detected using flow cytometry (excitation with a 535 nm laser). Anti-cancer agents and mAb were incubated during 30 minutes at 37° C.

[12] = tested on: neuroblastoma cell lines NXS2, IMR5, LAN-1 and LAN-5; conditions: NXS2, IMR5, LAN-1, LAN-5
Procedure: as §1
Cells in the log phase of growth were seeded into 96-well (5×10^3 for LAN-1 and NXS2 cells; 1×10^4 for IMR5 and LAN-5 cells) treated plates in 100 μl of complete media. The cells were allowed to attach during an overnight incubation prior to treating with test agents. […] Equivalent culture media volume was added to control wells. Three conditions were used: anti-cancer agent alone, mAb 8B6 alone, mAb 8B6+anti-cancer agent. Cells were exposed to test agents for 48 hours. Following the exposure to test agents, 15 μl of MIT reagent was added to each well. […] The absorbance at 570 nm was measured the following day using a iMark™ Microplate Absorbance Reader plate reader (Bio-Rad). […] Percent of Control values were calculated by dividing the absorbance values for each test well by the No Drug Control average and multiplying by 100.
Combination data was analyzed using CompuSyn® software to calculate Combination Index values to assess synergy. […]

[13] = tested on: HARCI glioblastoma primary cells; test: MTT assay, temozolomide with or without mAb 8B6; assay type: cell-based; conditions: Homo sapiens; HARCl; temozolomide alone; 72 hours
Procedure: (§5) Tumor specimens were collected from patients with a histologic diagnosis of GBM. Tumors were harvested at the time of surgical resection and immediately put into culture after dissociation of the tumors using the gentleMACs™ Dissociator (Miltenyi) according to the manufacturer's instructions.
(§6) Equivalent culture media volume was added to control wells. […] Cells were exposed to test agents for 72 hours. Following the exposure to test agents, 15 μl of MTT reagent was added to each well.
(§7) Cell viability was measured using the MTT assay and half maximal effective concentration (EC50) was calculated as previously disclosed.

[14] = tested on: AMBMa glioblastoma primary cells; test: MTT assay, temozolomide with or without mAb 8B6; assay type: cell-based; conditions: Homo sapiens, temozolomide alone, 72 hours
Procedure: as §5, §6, §7

[15] = tested on: GUITh glioblastoma primary cells; test: MTT assay, temozolomide with or without mAb 8B6; assay type: cell-based; conditions: Homo sapiens, temozolomide alone, 72 hours
Procedure: as §5, §6, §7

[16] = tested on: DUASOII glioblastoma primary cells; test: MTT assay, temozolomide with or without mAb 8B6; assay type: cell-based; conditions: Homo sapiens, temozolomide alone, 72 hours
Procedure: as §5, §6, §7

[17] = tested on: DUGAn glioblastoma primary cells; test: MTT assay, temozolomide with or without mAb 8B6; assay type: cell-based; conditions: Homo sapiens, temozolomide alone, 72 hours
Procedure: as §5, §6, §7

[18] = tested on: GLIO 5 glioblastoma primary cells; test: MTT assay, temozolomide with or without mAb 8B6; assay type: cell-based; conditions: Homo sapiens, temozolomide alone, 72 hours
Procedure: as §5, §6, §7

[19] = LA-N-5, drug alone, read-out: EC50
[20] = LA-N-5, with mAb 8B6 40 μg/ml, read-out: EC50 with mAb 8B6
[21] = with mAb 8B6 40 μg/ml, read-out: EC50 with mAb 8B6
[22] = IMR-5, drug alone, read-out: EC50
[23] = IMR-5, with mAb 8B6 40 μg/ml, read-out: EC50 with mAb 8B6
[24] = LAN1, drug alone, read-out: EC50
[25] = LAN1, with mAb 8B6 40 μg/ml, read-out: EC50 with mAb 8B6

SMILES | EC50 (LAN-5 cells [1]; [19]) | EC50 (LAN-5 cells [1]; [20]) | EC50 (NXS2 cells [2]; drug alone, read-out: EC50) | EC50 (NXS2 cells [2]; [21]) | EC50 (IMR5 cells [3]; [22]) | EC50 (IMR5 cells [3]; [23]) | EC50 (LAN-1 cells [4]; [24]) | EC50 (LAN-1 cells [4]; [25]) | mean liver weight [5] | Expression level of OAcGD2 (MFI ratio mAb 8B6 / mAb 7H2) after 48 hours exposure (NXS2 cells [6]; n = 3, untreated 7.3 ± 0.9) | Expression level of OAcGD2 (MFI ratio mAb 8B6 / mAb 7H2) after 48 hours exposure (LAN-5 cells [7]) | Expression level of OAcGD2 (MFI ratio mAb 8B6 / mAb 7H2) after 48 hours exposure (LAN-1 cells [8]) | body weight over the treatment period [9] | Expression level of OAcGD2 (MFI ratio mAb 8B6 / mAb 7H2) after 48 hours exposure (IMR5 cells [10]) | cells positive for the anti-cancer agent when incubated with mAb 8B6 versus agent alone and CTRL-(IgG) (LAN-1 cells [11]) | other results
CC1=C(/C=C/C(C)=C/C=C/C(C)=C\C(=O)O)C(C)(C)CCC1 [Isotretinoin, isotretinoin] | 37.2 µM | 31.3 µM | 75.7 µM | 59.3 µM | 32.9 µM | 24 µM | 7.4 µM | 4.3 µM | 2.0 ± 0.24 g | 7.5 ± 1.1 | 16.8 ± 0.7 | 12.0 ± 0.1 | no loss of body weight | 19.2 ± 0.8 | – | Expression level of OAcGD2 (MFI ratio mAb 8B6 / mAb 7H2) after 48 hours exposure (NXS2 cells [6]; n = 3, untreated 7.3 ± 0.9, listed as isotretinoin): remained unchanged
COc1cccc2c1C(=O)c1c(O)c3c(c(O)c1C2=O)C[C@@](O)(C(=O)CO)C[C@@H]3O[C@H]1C[C@H](N)[C@H](O)[C@H](C)O1 [Doxorubicin, doxorubicin] | 2.09 µM | 0.13 µM | 2.75 µM | 0.016 µM | 6.3 µM | 0.01 µM | 4.67 µM | 0.014 µM | 1.75 ± 0.09 g | 6.48 ± 2.28 | 14.36 ± 1.4 | 13.76 ± 1.8 | a loss of body weight after day 17 | 15.24 ± 0.21 | more cells were positive | Combination index 50 Values (LAN-5 cells [1]; CompuSyn, below 1 = synergy): 0.16; Combination index 50 Values (NXS2 cells [2]; CompuSyn, below 1 = synergy): 0.30; median combination index values across the tested neuroblastoma cell lines [12]: ≤ 0.30; Combination index 50 Values (IMR5 cells [3]; CompuSyn, below 1 = synergy): 0.10; Combination index 50 Values (LAN-1 cells [4]; CompuSyn, below 1 = synergy): 0.05; Expression level of OAcGD2 (MFI ratio mAb 8B6 / mAb 7H2) after 48 hours exposure (NXS2 cells [6]; n = 3, untreated 7.3 ± 0.9, listed as doxorubicin): remained unchanged
N.N.[Cl][Pt][Cl] [cisplatin] | – | – | – | – | – | – | – | – | – | – | – | – | – | – | more cells were positive | –
CC[C@@]1(O)C(=O)OCc2c1cc1n(c2=O)Cc2cc3c(CN(C)C)c(O)ccc3nc2-1 [Topotecan, topotecan] | 12.4 µM | 0.004 µM | 0.45 µM | 0.15 µM | 0.011 µM | 0.007 µM | 0.771 µM | 0.015 µM | 1.22 ± 0.09 g | – | – | – | no loss of body weight | – | – | –
O=c1[nH]cc(F)c(=O)[nH]1 [5-FU, 5-Fluorouracil] | – | – | – | – | – | – | – | – | – | – | – | – | – | – | more cells were positive | –
Cn1nnc2c(C(N)=O)ncn2c1=O [temozolomide] | – | – | – | – | – | – | – | – | – | – | – | – | – | – | – | EC50 [13]: 13100 µM; EC50 [14]: 784 µM; EC50 [15]: 3160 µM; EC50 [16]: 584 µM; EC50 [17]: 1120 µM; EC50 [18]: 1590 µM
